Assay: HILIC, HILICON iHILIC-(P) Classic, HILIC, PEEK, 100 × 2.1 mm, 5 µm, 40 °C, 0.2 mL/min, estimated dead time 1.1 min; A: water + 20 mM ammonium carbonate + 5 µM medronic acid; B: 10% water + 90% acetonitrile + 2 mM ammonium carbonate + 0.5 µM medronic acid; gradient (min/%B) 0/95 18/55 19/20 22/20 22.5/95 24/95 26/95
Details: stereoisomer not certain

| LC retention time [min] | SMILES |
| --- | --- |
| 12.7 | O=C(O)CCC(=O)C(=O)O [2-Oxoglutaric acid] |
| 11.9 | Nc1ncnc2c1ncn2C1OC(COP(=O)(O)OP(=O)(O)O)C(O)C1O (centres undefined) [ADP] |
| 10.1 | Nc1ncnc2c1ncn2C1OC(COP(=O)(O)O)C(O)C1O (centres undefined) [AMP] |
| 13.3 | Nc1ncnc2c1ncn2C1OC(COP(=O)(O)OP(=O)(O)OP(=O)(O)O)C(O)C1O (centres undefined) [ATP] |
| 9.93 | CC(=O)SCCNC(=O)CCNC(=O)C(O)C(C)(C)COP(=O)(O)OP(=O)(O)OCC1OC(n2cnc3c(N)ncnc32)C(O)C1OP(=O)(O)O (centres undefined) [Acetyl-CoA] |
| 4.79 | Nc1ncnc2c1ncn2C1OC(CO)C(O)C1O (centres undefined) [Adenosine] |
| 18.5 | NC(N)=NCCCC(N)C(=O)O (centres undefined) [Arginine] |
| 9.65 | NC(=O)CC(N)C(=O)O (centres undefined) [Asparagine] |
| 10.2 | NC(CC(=O)O)C(=O)O (centres undefined) [Aspartic Acid] |
| 15.3 | O=C(O)CC(O)(CC(=O)O)C(=O)O [Citric acid] |
| 11.5 | CC(C)(COP(=O)(O)OP(=O)(O)OCC1OC(n2cnc3c(N)ncnc32)C(O)C1OP(=O)(O)O)C(O)C(=O)NCCC(=O)NCCS (centres undefined) [CoenzymeA] |
| 11.9 | O=C(CO)C(O)C(O)C(O)COP(=O)(O)O (centres undefined) [Fructose 6-phosphate] |
| 16.4 | O=P(O)(O)OCC1OC(O)(COP(=O)(O)O)C(O)C1O (centres undefined) [Fructose-1,6-bisphosphate] |
| 12.4 | O=C(O)C=CC(=O)O [Fumaric Acid] |
| 10.2 | NC(CCC(=O)NC(CS)C(=O)NCC(=O)O)C(=O)O (centres undefined) [GSH] |
| 14.7 | NC(CCC(=O)NC(CSSCC(NC(=O)CCC(N)C(=O)O)C(=O)NCC(=O)O)C(=O)NCC(=O)O)C(=O)O (centres undefined) [GSSG] |
| 11.9 | O=P(O)(O)OC1OC(CO)C(O)C(O)C1O (centres undefined) [Glucose-1-phosphate] |

| LC retention time [min] | SMILES |
| --- | --- |
| 13.9 | O=P(O)(O)OCC1OC(O)C(O)C(O)C1O (centres undefined) [Glucose-6-phosphate] |
| 9.7 | NC(CCC(=O)O)C(=O)O (centres undefined) [Glutamic acid] |
| 9.81 | NC(=O)CCC(N)C(=O)O (centres undefined) [Glutamine] |
| 10.8 | O=P(O)(O)OCC(O)CO (centres undefined) [Glycerol-3-phosphate] |
| 15.5 | O=C(O)CC(C(=O)O)C(O)C(=O)O (centres undefined) [Isocitric acid] |
| 3.92 | CC(O)C(=O)O (centres undefined) [Lactic Acid] |
| 18.3 | NCCCCC(N)C(=O)O (centres undefined) [Lysine] |
| 11.9 | O=C(O)CC(O)C(=O)O (centres undefined) [Malic Acid] |
| 9.08 | NC(=O)C1=CN(C2OC(COP(=O)(O)OP(=O)(O)OCC3OC(n4cnc5c(N)ncnc54)C(O)C3O)C(O)C2O)C=CC1 (centres undefined) [NADH] |
| 15.2 | NC(=O)C1=CN(C2OC(COP(=O)(O)OP(=O)(O)OCC3OC(n4cnc5c(N)ncnc54)C(OP(=O)(O)O)C3O)C(O)C2O)C=CC1 (centres undefined) [NADPH] |
| 14.4 | NC(=O)c1ccc[n+](C2OC(COP(=O)(O)OP(=O)(O)OCC3OC(n4cnc5c(N)ncnc54)C(OP(=O)(O)O)C3O)C(O)C2O)c1 (centres undefined) [NADP] |
| 11.1 | NC(=O)c1ccc[n+](C2OC(COP(=O)(O)OP(=O)(O)OCC3OC(n4cnc5c(N)ncnc54)C(O)C3O)C(O)C2O)c1 (centres undefined) [NAD] |
| 14.6 | C=C(OP(=O)(O)O)C(=O)O [PEP] |
| 11.6 | O=P(O)(O)OCC1OC(O)C(O)C1O (centres undefined) [Pentose-phosphate] |
| 11.2 | O=C(O)CCC(=O)O [Succinic Acid] |
| 11.8 | O=C(CO)COP(=O)(O)O [Triose phosphate] |
| 12 | CC(=O)NC1C(OP(=O)(O)OP(=O)(O)OCC2OC(n3ccc(=O)[nH]c3=O)C(O)C2O)OC(CO)C(O)C1O (centres undefined) [UDP-GlcNAc] |

From the RepoRT retention time repository
